In the supplement of paper PMC10307832:

Columns and labels:
Test in all cases: relative viability (nuclei count vs DMSO), 5 days (fraction); higher = more cells survive
XMD8-85 + Crizotinib = compound: CN1CCN(CC1)C2=CC(=C(C=C2)NC3=NC=C4C(=N3)N(C5=CC=CC=C5C(=O)N4C)C)OC [XMD8-85] + C[C@@H](Oc1cc(-c2cnn(C3CCNCC3)c2)cnc1N)c1c(Cl)ccc(F)c1Cl [Crizotinib] (partner 1 µM)
Procedure, shortened: (§1)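 Lung cancer cell lines, seeded in 1536-well plates, were treated the following day by pin tool with a single drug or with five library-drug doses (not always all listed) in √10 steps on top of a fixed anchor-drug dose. Cells were fixed and nuclei stained in one step after 5 days, and nuclei were counted. Relative viability is the nuclei count for treated wells divided by that for vehicle wells, reported as medians of duplicate plates.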

4EGI-1 + OSI-027 = compound: O=C(O)C(Cc1ccccc1[N+](=O)[O-])=NNc1nc(-c2ccc(Cl)c(Cl)c2)cs1 (mixture of isomers) [4EGI-1] + COc1cccc2cc(-c3nc([C@H]4CC[C@H](C(=O)O)CC4)n4ncnc(N)c34)[nH]c12 [OSI-027] (partner 0.5 µM)
Procedure, shortened: as §1

XMD8-85 + Luminespib = compound: CN1CCN(CC1)C2=CC(=C(C=C2)NC3=NC=C4C(=N3)N(C5=CC=CC=C5C(=O)N4C)C)OC [XMD8-85] + CCNC(=O)c1noc(-c2cc(C(C)C)c(O)cc2O)c1-c1ccc(CN2CCOCC2)cc1 [Luminespib] (partner 0.01 µM)
Procedure, shortened: as §1

XMD8-85 + Pemetrexed = compound: CN1CCN(CC1)C2=CC(=C(C=C2)NC3=NC=C4C(=N3)N(C5=CC=CC=C5C(=O)N4C)C)OC [XMD8-85] + Nc1nc2[nH]cc(CCc3ccc(C(=O)N[C@@H](CCC(=O)O)C(=O)O)cc3)c2c(=O)[nH]1 [Pemetrexed] (partner 0.2 µM)
Procedure, shortened: as §1

Cell Line | relative viability (XMD8-85 + Crizotinib; first compound 0.08 µM) | relative viability (XMD8-85 + Crizotinib; first compound 0.253 µM) | relative viability (XMD8-85 + Crizotinib; first compound 0.8 µM) | relative viability (XMD8-85 + Crizotinib; first compound 2.53 µM) | relative viability (XMD8-85 + Crizotinib; first compound 8 µM) | relative viability (4EGI-1 + OSI-027; first compound 0.5 µM) | relative viability (4EGI-1 + OSI-027; first compound 1.581 µM) | relative viability (4EGI-1 + OSI-027; first compound 5 µM) | relative viability (4EGI-1 + OSI-027; first compound 15.81 µM) | relative viability (4EGI-1 + OSI-027; first compound 50 µM) | relative viability (XMD8-85 + Luminespib; first compound 0.08 µM) | relative viability (XMD8-85 + Luminespib; first compound 0.253 µM) | relative viability (XMD8-85 + Luminespib; first compound 0.8 µM) | relative viability (XMD8-85 + Luminespib; first compound 2.53 µM) | relative viability (XMD8-85 + Luminespib; first compound 8 µM) | relative viability (XMD8-85 + Pemetrexed; first compound 0.08 µM) | relative viability (XMD8-85 + Pemetrexed; first compound 0.253 µM) | relative viability (XMD8-85 + Pemetrexed; first compound 0.8 µM) | relative viability (XMD8-85 + Pemetrexed; first compound 2.53 µM) | relative viability (XMD8-85 + Pemetrexed; first compound 8 µM)
NCI-H1563 | 0.931 | 0.812 | 0.72 | 0.841 | 0.757 | 0.788 | 0.752 | 0.85 | 0.736 | 0.665 | 0.608 | 0.488 | 0.505 | 0.536 | 0.567 | 0.718 | 0.809 | 0.67 | 0.778 | 0.631
PC-14 | 0.867 | 0.874 | 0.834 | 0.972 | 0.722 | 1.21 |  | 1.15 | 0.14 | 0.0614 | 0.14 | 0.167 | 0.179 | 0.154 | 0.134 | 0.114 | 0.144 | 0.126 | 0.116 | 0.101
LCLC-103H | 0.973 | 1.07 | 1.14 | 1.07 | 0.761 | 0.479 | 0.469 | 0.482 | 0.471 | 0.333 | 0.96 | 0.941 | 0.864 | 1.12 | 0.704 | 0.426 | 0.452 | 0.401 | 0.432 | 0.398
NCI-H2009 | 1.03 | 0.981 | 1.1 | 1.06 | 0.395 | 0.765 | 0.651 | 0.768 | 0.657 | 0.161 | 1.01 | 1.01 | 1.05 | 0.898 | 0.564 | 0.958 | 1.03 | 1.1 | 0.885 | 0.767
NCI-H596 | 0.991 | 0.906 | 0.875 | 0.789 | 0.781 | 0.844 | 0.579 | 0.905 | 0.62 | 0.518 | 0.885 | 1.02 |  | 0.875 | 0.605 | 0.477 |  | 0.457 | 0.465 | 0.368
HARA | 1.21 | 0.885 | 1.3 | 0.94 | 0.417 | 0.651 | 0.517 | 0.648 | 0.453 | 0.154 | 0.927 | 0.726 | 0.749 | 0.528 | 0.387 | 0.26 | 0.227 | 0.307 | 0.295 | 0.229
UMC-11 | 0.656 | 0.497 | 0.638 | 0.459 | 0.237 | 0.465 | 0.526 | 0.507 | 0.484 | 0.284 | 0.972 | 1.01 | 1.08 | 0.941 | 0.671 | 0.818 | 0.745 | 0.82 | 0.707 | 0.391
NCI-H460 | 0.996 | 0.83 | 1.19 | 0.619 | 0.0598 | 0.684 |  | 0.668 | 0.3 | 0.0347 | 0.0362 | 0.0282 | 0.0359 | 0.0262 | 0.0291 | 0.0608 | 0.0555 | 0.0635 | 0.0564 | 0.0781
NCI-H322M | 0.872 | 1.03 | 0.929 | 0.996 | 0.55 | 0.63 |  | 0.546 | 0.532 | 0.223 | 0.609 | 0.823 | 0.797 | 0.927 | 0.68 | 0.579 | 0.596 | 0.606 | 0.59 | 0.48
NCI-H1734 | 0.614 | 0.646 | 0.724 | 0.577 | 0.368 | 0.698 | 0.432 | 0.618 | 0.55 | 0.23 | 0.176 | 0.173 | 0.213 | 0.205 | 0.151 |  | 0.405 | 0.419 | 0.354 | 0.366
NCI-H2170 | 1.18 | 1.01 | 1.27 | 1.28 | 0.966 | 0.785 | 0.63 | 0.713 | 0.558 | 0.391 | 0.887 | 0.609 | 0.931 | 0.894 | 0.474 | 0.258 | 0.28 | 0.264 | 0.269 | 0.286
HCC-15 | 0.852 | 0.859 | 0.855 | 0.806 | 0.592 | 0.692 |  | 0.734 | 0.557 | 0.19 | 0.481 | 0.479 | 0.295 | 0.336 | 0.302 | 0.202 | 0.216 | 0.212 | 0.207 | 0.187
NCI-H1651 | 0.924 | 0.855 | 0.822 | 0.836 | 0.772 | 0.845 | 0.565 | 0.693 | 0.664 | 0.463 | 0.785 | 1.08 | 0.774 | 0.667 | 0.46 | 0.506 | 0.617 | 0.602 | 0.748 | 0.445
LOU-NH91 | 0.749 | 0.741 | 0.728 | 0.725 | 0.67 | 0.737 |  | 0.752 | 0.432 | 0.675 | 0.413 | 0.31 | 0.326 | 0.523 | 0.309 | 0.281 | 0.333 | 0.311 | 0.295 | 0.378
NCI-H3122 | 0.261 | 0.258 | 0.274 | 0.329 | 0.331 | 1.27 |  | 1.04 | 0.862 | 0.235 | 0.117 |  | 0.115 | 0.106 | 0.102 | 0.178 | 0.201 | 0.203 | 0.213 | 0.172
HCC-44 | 0.795 | 0.769 | 0.821 | 0.802 | 0.301 | 0.483 |  | 0.41 | 0.404 | 0.175 | 1.32 | 1.21 | 1.36 | 0.588 | 0.75 | 0.65 | 0.701 | 0.647 | 0.597 | 0.632
